Experiment [1] deals with T1, CDK2 (Homo sapiens, UniProt P24941).
T1 construct: High-Throughput Measurement of Cellular Endogenous CDK2; endogenous in cells; host or cells: OVCAR3
As to the kind of experiment: Inhibition of CDK2: phospho-Rb (S807/811) HTRF measurement in OVCAR3 cells. Format: cell-based. The settings on record: 24 h compound treatment, read-out: pRb (nM), IC50 in pRB(S807/811) assay. The method, then: Phosphorylation of RB protein at S807/811 were measured using HTRF phospho-RB cellular kits (Cat #64RBS807PEG) from Cisbio.
On Day 1, OVCAR3 (dependent on CDK2) cells were seeded into 96-well tissue-culture treated plates at 20,000 cells/well in 200 μL and incubated overnight at 37° C. in CO2 atmosphere. On Day 2, the cells were treated with test compounds at concentrations from 0.3 to 10,000 nM using HP D300 digital dispenser. Twenty-four hours after compound treatment, cell culture media was removed by flicking the plate and tapping the plate against clean paper towel. Immediately 30 μL 1× lysis buffer was supplemented from the kit and the plate was incubated at room temperature on shaker for 30 min. After homogenization by pipetting up and down, 8 μL cell lysate from 96-well cell culture plate was transferred to 384-well small volume white detection plate. 2 μL premixed detection solution was added and the plate was covered with sealer. To prepare the detection solution, d2 conjugated-phospho-RB antibody and Eu-cryptate conjugated phosphor-RB antibody were diluted into detection buffer following manufacturer's instruction. Detection plates were incubated for 4 h at room temperature and read on ClarioStar (BMG Labtech) in TR-FRET mode (665 nM and 620 nM). The TR-FRET ratio (665 nM/620 nM) was plotted against the compound concentration and normalized to DMSO controls. Half maximal inhibition concentration (IC50) values are calculated with a four-parameter logistic fit using GraphPad Prism (version 8; La Jolla, CA).
In the table below, A indicates a IC50 of less than 0.1 μM; B indicates a IC50 of greater than or equal to 0.1 μM but less than 0.5 μM; C indicates a IC50 of greater than or equal to 0.5 μM but less than 1 μM; and D indicates a […] of greater than or equal to 1 μM but less than 10 μM.
For orientation: In TR-FRET formats the signal depends on donor and acceptor labels being close together.

Experiment [2] concerns the target T1, CDK2. Briefly: CDK2 HTRF assay: cellular endogenous CDK2 level in OVCAR3 cells. The settings on record: 24 hours compound treatment, read-out: DC50 (half maximal degradation concentration of CDK2). Format: cell-based. The method, then:
Effects of compounds on cellular CDK2 level can be monitored by a high-throughput HTRF assay or traditional Western Blot assay.
To determine half maximal degradation concentration (DC50) values of compounds, cellular CDK2 level was measured in 96-well format using HTRF total CDK2 cellular kit (Cat #64CDK2TPEG) from Cisbio.
On Day 1, OVCAR3 cells were seeded into 96-well tissue-culture treated plates at 20,000 cells/well in 200 μL and incubated overnight at 37° C. in CO2 atmosphere. On Day 2 cells were treated with compounds at concentration ranging from 0.3 to 10,000 nM using HP D300 digital dispenser. 24 hours after compound treatment, cell culture media was removed by flicking the plate and tapping the plate against clean paper towel. Immediately 30 μL 1× lysis buffer was supplemented from the kit and the plate was incubated at room temperature on shaker for 30 min. After homogenization by pipetting up and down, 8 μL cell lysate from 96-well cell culture plate was transferred to 384-well small volume white detection plate. 2 μL premixed detection solution was added and the plate was covered with sealer. To prepare the detection solution, d2 conjugated-CDK2 antibody and Eu-cryptate conjugated CDK2 antibody were diluted into detection buffer following manufacturer's instruction. Detection plates were incubated overnight at room temperature and read on ClarioStar (BMG Labtech) in TR-FRET mode (665 nM and 620 nM). The TR-FRET ratio (665 nM/620 nM) was plotted against the compound concentration and normalized to DMSO controls. Half maximal degradation concentration (DC50) values were calculated with a four-parameter logistic fit using GraphPad Prism (version 8; La Jolla, CA).
In the table below, A indicates a DC50 of less than 0.1 μM; B indicates a DC50 of greater than or equal to 0.1 μM but less than 0.5 μM; C indicates a DC50 of greater than or equal to 0.5 μM but less than 1 μM; and D indicates a DC50 of greater than or equal to 1 μM but less than 10 μM.

The structures appear in SMILES notation.

Take `O=C1CCC(c2ccc(N3CCN(Cc4cccc(S(=O)(=O)N5CCC(Nc6ncc(C(F)(F)F)c(-c7cnn(CC(F)(F)F)c7)n6)[C@H](F)C5)c4)CC3)c(F)c2)C(=O)N1` (mixture of isomers) [Example 29, Rac-3-(3-fluoro-4-(4-(3-(((3R,4S)-3-fluoro-4-((4-(1-(2,2,2-trifluoroethyl)-1H-pyrazol-4-yl)-5-(trifluoromethyl)-pyrimidin-2-yl)amino)piperidin-1-yl)-sulfonyl)benzyl)piperazin-1-yl)phenyl)-piperidine-2,6-dione]: at CDK2 [1], the IC50 is below 100 nM. In addition, on CDK2 [2], the DC50 is below 0.1 µM.
For `Cn1nc(N2CCC(=O)NC2=O)c2ccc(C3CCN(CC4CCN(S(=O)(=O)N5CCC(Nc6ncc(C(F)(F)F)c(-c7cnn(CC(F)(F)F)c7)n6)CC5)C4)CC3)cc21` (stereo not drawn) [Example 88, 1-(1-methyl-6-(1-((1-((4-((4-(1-(2,2,2-trifluoroethyl)-1H-pyrazol-4-yl)-5-(trifluoromethyl)pyrimidin-2-yl)amino)-piperidin-1-yl)sulfonyl)-pyrrolidin-3-yl)methyl)piperidin-4-yl)-1H-indazol-3-yl)dihydropyrimidine-2,4(1H,3H)-dione], in that order: below 100 nM and below 0.1 µM.
For `O=C1CCC(Nc2ccc(C3CCN(Cc4cccc(S(=O)(=O)N5CCC(Nc6ncc(C(F)(F)F)c(-c7cnn(CC(F)(F)F)c7)n6)CC5)c4)CC3)cc2)C(=O)N1` (stereo not drawn) [Example 11, 3-((4-(1-(3-((4-((4-(1-(2,2,2-trifluoro-ethyl)-1H-pyrazol-4-yl)-5-(trifluoro-methyl)pyrimidin-2-yl)amino)-piperidin-1-yl)sulfonyl)benzyl)piperidin-4-yl)-phenyl)amino)-piperidine-2,6-dione], in that order: below 100 nM and below 0.1 µM.
The like results for `O=C1CCC(c2ccc(N3CCN(Cc4cccc(S(=O)(=O)N5CCC(Nc6ncc(C(F)(F)F)c(-c7cnn(CC(F)(F)F)c7)n6)CC5)c4)CC3)cc2)C(=O)N1` (stereo not drawn) [Example 2, 3-(4-(4-(3-((4-((4-(1-(2,2,2-trifluoro-ethyl)-1H-pyrazol-4-yl)-5-(trifluoro-methyl)pyrimidin-2-yl)amino)piperidin-1-yl)sulfonyl)benzyl)piperazin-1-yl)-phenyl)piperidine-2,6-dione] were, in that order, below 100 nM and below 0.1 µM.
For `O=C1CCN(c2ccc(N3CCN(Cc4cccc(S(=O)(=O)N5CC[C@@H](Nc6ncc(C(F)(F)F)c(-c7cnn(CC(F)(F)F)c7)n6)[C@@H](F)C5)c4)CC3)cc2)C(=O)N1` (racemic) [Example 28, Rac-1-(4-(4-(3-(((3R,4S)-3-fluoro-4-((4-(1-(2,2,2-trifluoroethyl)-1H-pyrazol-4-yl)-5-(trifluoromethyl)-pyrimidin-2-yl)amino)piperidin-1-yl)sulfonyl)-benzyl)piperazin-1-yl)phenyl)dihydro-pyrimidine-2,4(1H,3H)-dione], the IC50 on CDK2 [1] lay within 100 to 500 nM. Further, the DC50 at CDK2 [2] was below 0.1 µM.
For `O=C1CCN(c2ccc(N3CCN(Cc4cccc(S(=O)(=O)N5CCC(Nc6ncc(C(F)(F)F)c(-c7cnn(CC(F)(F)F)c7)n6)CC5)c4)CC3)cc2)C(=O)N1` [Example 25, 1-(4-(4-(3-((4-((4-(1-(2,2,2-trifluoro-ethyl)-1H-pyrazol-4-yl)-5-(trifluoro-methyl)pyrimidin-2-yl)amino)-piperidin-1-yl)sulfonyl)benzyl)piperazin-1-yl)-phenyl)dihydro-pyrimidine-2,4(1H,3H)-dione], in that order: below 100 nM and below 0.1 µM.
The like results for `O=C1CCC(N2Cc3cc(N4CCN(Cc5cccc(S(=O)(=O)N6CCC(Nc7ncc(C(F)(F)F)c(-c8cnn(CC(F)(F)F)c8)n7)CC6)c5)CC4)c(F)cc3C2=O)C(=O)N1` (stereo not drawn) [Example 15, 3-(6-fluoro-1-oxo-5-(4-(3-((4-((4-(1-(2,2,2-trifluoroethyl)-1H-pyrazol-4-yl)-5-(trifluoromethyl)pyrimidin-2-yl)-amino)piperidin-1-yl)sulfonyl)benzyl)-piperazin-1-yl)isoindolin-2-yl)-piperidine-2,6-dione] were, in that order, below 100 nM and below 0.1 µM.
Regarding `O=C1CCC(c2ccc(N3CCN(Cc4cccc(S(=O)(=O)N5CCC(Nc6ncc(C(F)(F)F)c(-c7cnn(CC(F)(F)F)c7)n6)CC5)c4)CC3)c(F)c2)C(=O)N1` (stereo not drawn) [Example 14, 3-(3-fluoro-4-(4-(3-((4-((4-(1-(2,2,2-trifluoroethyl)-1H-pyrazol-4-yl)-5-(trifluoromethyl)pyrimidin-2-yl)-amino)piperidin-1-yl)sulfonyl)benzyl)-piperazin-1-yl)phenyl)piperidine-2,6-dione], the IC50 on CDK2 [1] is below 100 nM. For the same molecule, the DC50 on CDK2 [2] is below 0.1 µM.
For `O=C1CCN(C2CCN(Cc3cccc(S(=O)(=O)N4CCC(Nc5ncc(C(F)(F)F)c(-c6cnn(CC(F)(F)F)c6)n5)CC4)c3)C2)C(=O)N1` (stereo not drawn) [Example 81, 1-(1-(3-((4-((4-(1-(2,2,2-trifluoro-ethyl)-1H-pyrazol-4-yl)-5-(trifluoromethyl)-pyrimidin-2-yl)amino)-piperidin-1-yl)sulfonyl)benzyl)-pyrrolidin-3-yl)-dihydropyrimidine-2,4(1H,3H)-dione], in that order: below 100 nM and below 0.1 µM.
The like results for `Cn1nc(N2CCC(=O)NC2=O)c2ccc(C3CCN(C(c4cccc(S(=O)(=O)N5CCC(Nc6ncc(C(F)(F)F)c(-c7cnn(CC(F)(F)F)c7)n6)CC5)c4)C(F)F)CC3)cc21` (stereo not drawn) [Example 84, 1-(6-(1-(2,2-difluoro-1-(3-((4-((4-(1-(2,2,2-trifluoroethyl)-1H-pyrazol-4-yl)-5-(trifluoromethyl)pyrimidin-2-yl)amino)-piperidin-1-yl)sulfonyl)-phenyl)ethyl)-piperidin-4-yl)-1-methyl-1H-indazol-3-yl)dihydropyrimidine-2,4(1H,3H)-dione] were, in that order, below 100 nM and below 0.1 µM.
As to `Cc1ncsc1-c1ccc([C@H](C)NC(=O)[C@@H]2C[C@@H](O)CN2C(=O)[C@@H](NC(=O)CC2CCN(Cc3cccc(S(=O)(=O)N4CCC(Nc5ncc(C(F)(F)F)c(-c6cnn(CC(F)(F)F)c6)n5)CC4)c3)CC2)C(C)(C)C)cc1` [Example 62, (2S,4R)-1-((S)-3,3-dimethyl-2-(2-(1-(3-((4-((4-(1-(2,2,2-trifluoroethyl)-1H-pyrazol-4-yl)-5-(trifluoromethyl)-pyrimidin-2-yl)amino)piperidin-1-yl)-sulfonyl)benzyl)piperidin-4-yl)-acetamido)butanoyl)-4-hydroxy-N-((S)-1-(4-(4-methylthiazol-5-yl)phenyl)-ethyl)pyrrolidine-2-carboxamide], the IC50 on CDK2 [1] was below 100 nM. On CDK2 [2], the DC50 was below 0.1 µM.
Regarding `O=C1CCN(c2ccc(N3CCN(Cc4cccc(S(=O)(=O)N5CCC(Nc6ncc(C(F)(F)F)c(-c7cnn(CC(F)(F)F)c7)n6)CC5)c4)CC3)c(F)c2)C(=O)N1` [Example 13, 1-(3-fluoro-4-(4-(3-((4-((4-(1-(2,2,2-trifluoroethyl)-1H-pyrazol-4-yl)-5-(trifluoromethyl)pyrimidin-2-yl)amino)-piperidin-1-yl)sulfonyl)benzyl)-piperazin-1-yl)phenyl)dihydro-pyrimidine-2,4(1H,3H)-dione], the IC50 at CDK2 [1] is below 100 nM. Moreover, the DC50 on CDK2 [2] is below 0.1 µM.

The values are drawn from patent publication US20260274853A1, “BIFUNCTIONAL COMPOUNDS CONTAINING PYRIMIDINE DERIVATIVES FOR DEGRADING CYCLIN-DEPENDENT KINASE 2 VIA UBIQUITIN PROTEASOME PATHWAY” (NIKANG THERAPEUTICS, INC., priority 2022, published 2026).
